Molecular target: T1, Androgen receptor (Rattus norvegicus, UniProt P15207)
T1 sequence (P15207 whole entry): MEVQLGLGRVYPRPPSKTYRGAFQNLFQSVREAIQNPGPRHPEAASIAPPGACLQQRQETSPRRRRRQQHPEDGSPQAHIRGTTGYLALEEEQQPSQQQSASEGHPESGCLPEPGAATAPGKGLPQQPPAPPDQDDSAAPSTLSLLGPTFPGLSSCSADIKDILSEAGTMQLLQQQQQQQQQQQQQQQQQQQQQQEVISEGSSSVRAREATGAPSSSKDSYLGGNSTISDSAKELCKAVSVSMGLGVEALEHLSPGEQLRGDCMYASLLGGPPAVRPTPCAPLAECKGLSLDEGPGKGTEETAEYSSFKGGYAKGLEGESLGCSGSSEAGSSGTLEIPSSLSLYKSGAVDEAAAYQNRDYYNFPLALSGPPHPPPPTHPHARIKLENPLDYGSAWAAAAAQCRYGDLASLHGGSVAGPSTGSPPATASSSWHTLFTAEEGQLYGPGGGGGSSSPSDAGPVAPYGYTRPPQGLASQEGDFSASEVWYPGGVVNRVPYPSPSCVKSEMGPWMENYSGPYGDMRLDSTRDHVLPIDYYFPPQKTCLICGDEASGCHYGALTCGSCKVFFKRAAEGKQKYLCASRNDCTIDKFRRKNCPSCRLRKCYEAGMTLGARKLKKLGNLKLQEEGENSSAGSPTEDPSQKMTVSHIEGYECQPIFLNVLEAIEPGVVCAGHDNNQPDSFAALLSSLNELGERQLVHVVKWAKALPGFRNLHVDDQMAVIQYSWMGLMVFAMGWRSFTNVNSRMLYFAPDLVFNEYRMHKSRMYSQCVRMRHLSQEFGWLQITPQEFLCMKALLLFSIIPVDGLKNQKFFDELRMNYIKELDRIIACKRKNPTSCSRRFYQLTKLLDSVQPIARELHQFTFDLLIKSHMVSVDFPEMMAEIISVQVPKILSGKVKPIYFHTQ
Test: Antagonist activity at recombinant GST/His-tagged rat androgen receptor amino-terminal domain by fluorescence polarization assay

IC50: 6 µM
SMILES: CC(C)(c1ccc(OCC(O)CO)cc1)c1ccc(OCC(O)CCl)cc1 (stereo unspecified)
